Patent US20150315218A1, “SALTS OF PRODRUGS OF PIPERAZINE AND SUBSTITUTED PIPERIDINE ANTIVIRAL AGENTS” (Bristol-Myers Squibb Company, priority 2004, published 2015)
Structures can show the parent of a compound that is named as a salt. Where two headings read alike, the source gives them in different places.

Legend:
[1] = rat
Method: (§1) The stability of Iab was studied in fresh blood and serum from rat, dog, monkey and human (n=2). The blood was collected in vacutainers containing K2EDTA (Becton Dickinson, Franklin Lakes, N.J.). The serum was collected in vacutainers containing no anticoagulant. Iab was incubated at a starting concentration of approximately 10 μM for 60-90 min at 37° C. Serial samples were taken at the pre-determined times. Aliquots of blood samples (200 μL) were first mixed with 100 μL of water followed by 400 μL of acetonitrile. The serum samples (50 μL) were added into microtainers containing K2EDTA (Becton Dickinson, Franklin Lakes, N.J.) followed by the addition of 100 μL of acetonitrile. The supernatant was analyzed for both Iab and IVa by LC/MS/MS. The stability of Ibb was studied in fresh blood and serum from rat, dog, monkey and human (n=2). The blood was collected in vacutainers containing K2EDTA (Becton Dickinson, Franklin Lakes, N.J.). The serum was collected in vacutainers containing no anticoagulant. Ibb was incubated at a starting concentration of approximately 15 μM for 90 min at 37° C. Serial samples were taken at the pre-determined times. Aliquots of blood samples (200 μL) were first mixed with 100 μL of water followed by 400 μL of acetonitrile. The serum samples (50 μL) were added into microtainers containing K2EDTA (Becton Dickinson, Franklin Lakes, N.J.) followed by the addition of 100 μL of acetonitrile. […] The stability of Icb was studied in fresh blood and serum from rat, dog, monkey and human (n=2). The blood was collected in vacutainers containing K2EDTA (Becton Dickinson, Franklin Lakes, N.J.). The serum was collected in vacutainers containing no anticoagulant. Icb was incubated at a starting concentration of approximately 10 μM for 90 min at 37° C. Serial samples were taken at the pre-determined times. Aliquots of blood samples (200 μL) were first mixed with 100 μL of water followed by 400 μL of acetonitrile. The serum samples (50 μL) were added into microtainers containing K2EDTA (Becton Dickinson, Franklin Lakes, N.J.) followed by the addition of 100 μL of acetonitrile.

[2] = monkey, 10 μM
[3] = rat, 10 μM
Method: as §1

[4] = pH 7.5
Method: The stability of Iab was also evaluated, as described above, in Tris-HCl buffer (0.1 M, pH 7.5). The stability of Ibb was also evaluated, as described above, in Tris-HCl buffer (0.1 M, pH 7.5). The stability of Icb was also evaluated, as described above, in Tris-HCl buffer (0.1 M, pH 7.5).

[5] = Capsule formulation studies of IVa (clinical form, spray dried form) vs Iab in fasted dogs; assay type: in vivo, dog; conditions: capsules, 20 mg/kg of IVa equivalent
Method: Additional formulation studies of IVa were conducted in fasted dogs (n=2 per dose group). The dogs were administered either the clinical form or the spray dried form of IVa in capsules. The clinical capsule form of IVa was administered at a single dose of 20 mg/kg. The spray dried form of IVa was administered at 20, 75 and 200 mg/kg.

[6] = MAP studies G and H: PO dosing of diester IIa and monoester II′a in rats; assay type: in vivo, rat; conditions: 5 mg/kg; for AUC / Cmax / Tmax / bioavailability / half-life: male, Sprague-Dawley, rat, plasma, po; for half-life: read-out: T½ p.o. (converted)
Method: Compound IVa was administered in a polyethylene glycol 400 (PEG400)/ethanol (EtOH) solution (90/10, v/v) unless noted otherwise. Plasma and tissue samples were collected and stored at −20° C. until analysis. Male Sprague-Dawley rats (300-350 g, Hilltop Lab Animals, Inc., Scottdale, Pa. 15683) with cannulas implanted in the jugular vein and/or bile duct were used in the pharmacokinetic studies of compound IVa. Rats were fasted overnight in PO studies. Blood samples (0.3 mL) were collected from the jugular vein in EDTA-containing microtainer tubes (Becton Dickinson, Franklin Lakes, N.J. 07147) to obtain plasma. […] In the PO studies, rats (n=3) received PO doses of 5 and 100 mg/kg.
The procedure for the oral dosing leg of MAP study A1 was followed except that diester IIa was utilized in place of Compound IVa. […] The data is described in Table 10 below:
The procedure for the oral dosing leg of MAP study A1 was followed except that monoester II′a was utilized in place of Compound IVa. […]

[7] = Cytotoxicity assay (XTT dye reduction) in MT-2 cells; assay type: cell-based; conditions: human, six days
Method: Cytotoxicity assays were conducted with the same MT-2 cells, using methodology well known in the art. […] 50 μl of XTT reagent (1 mg/ml 2,3-bis[2-methoxy-4-nitro-5-sulfophenyl]-2H-tetrazolium-5-carboxanilide, 10 μg/ml phenazine methosulfate dissolved in phosphate buffered saline) was added to each well and incubated for 3 hours. Color formation by actively respiring cells was quantitated in a plate reader at 450 nm, and used to determine a CC50.

[8] = Multiple dose study of Compound IVa in healthy humans; assay type: in vivo, human; conditions: multiple Q12H doses, 14 days
Method: A placebo-controlled, ascending multiple-dose study to evaluate the safety, tolerability and pharmacokinetics of Compound IVa in healthy human subjects was carried out. Dosing was continued at 12 h intervals for 14 days. […] Thus, the exposure was better when dosing was combined with a high fat meal and exposure increases with dose were higher with a high fat meal.

[9] = IVa following PO dosing of diester IIa
[10] = IVa following PO dosing of monoester II′a

Q: With `COc1cnc(-n2cnc(C)n2)c2c1c(C(=O)C(=O)N1CCN(C(=O)c3ccccc3)CC1)cn2COP(=O)(O)O` [Icb, [3-[(4-benzoylpiperazin-1-yl)(oxo)acetyl]-4-methoxy-7-(3-methyl-1H-1,2,4-triazol-1-yl)-1H-pyrrolo[2,3-c]pyridin-1-yl]methyl dihydrogen phosphate, 2-amino-2-(hydroxymethyl)propane-1,3-diol salt (1:1)] as the molecule, how does the “conversion of prodrug to parent in blood containing EDTA” value [1] read?
A: < 2%

Q: And the “Icb” value ([1]; 0 min)?
A: 12 µM

Q: And the “Icb” value ([1]; 15 min)?
A: 11 µM

Q: And the “Icb” value ([1]; 90 min)?
A: 12 µM

Q: What about the “Icb” value ([2]; 0 min) of the same molecule?
A: 9.3 µM

Q: And the “Icb” value ([2]; 15 min)?
A: 7.1 µM

Q: What about the “Icb” value ([2]; 90 min) of the same molecule?
A: 1.1 µM

Q: And the “Icb” value ([3]; 0 min)?
A: 7.6 µM

Q: And the “Icb” value ([3]; 15 min)?
A: 6.5 µM

Q: And the “Icb” value ([3]; 90 min)?
A: 2.1 µM

Q: What about the “Icb” value ([4]; 0 min, 10 μM) of the same molecule?
A: 11 µM

Q: What about the “Icb” value ([4]; 15 min) of the same molecule?
A: 11 µM

Q: What about the “Icb” value ([4]; 30 min) of the same molecule?
A: 11 µM

Q: And the “Icb” value ([4]; 45 min, 10 μM)?
A: 11 µM

Q: And the “Icb” value ([4]; 60 min, 10 μM)?
A: 10 µM

Q: And the “Icb” value ([4]; 90 min, 10 μM)?
A: 11 µM

Q: And the “stability / conversion of prodrug to parent in Tris-HCl buffer” value ([4]; 90 min)?
A: less than 2%

Q: Which “AUC of IVa from the prodrug relative to the clinical form of IVa” value [5] does the source give for `COc1cnc(OC)c2c1c(C(=O)C(=O)N1CCN(C(=O)c3ccccc3)CC1)cn2COP(=O)(O)O` [Iab, {3-[(4-benzoylpiperazin-1-yl)(oxo)acetyl]-4,7-dimethoxy-1H-pyrrolo[2,3-c]pyridin-1-yl}methyl dihydrogen phosphate, L-lysine salt (1:1)] here?
A: 37 times

Q: What about the “Cmax of IVa from the prodrug relative to the clinical form of IVa” value [5] of the same molecule?
A: 45 times

Q: For `COc1ncc(OC)c2c(C(=O)C(=O)N3CCN(C(=O)c4ccccc4)CC3)c[nH]c12` [IVa, N-(benzoyl)-N′-[(4,7-dimethoxy-6-azaindol-3-yl)-oxoacetyl]piperazine], which “Cp @ 24 hr p.o. (nM)” value [6, 9] is on record?
A: Not detected

Q: What about the “Cp @ 24 hr p.o. (nM)” value ([6]; IVa following PO dosing of monoester II′a, n = 2/3) of the same molecule?
A: 3.61 (n = 2/3) nM

Q: And the AUC [6, 9]?
A: 4 ± 1 µM·h

Q: And the Cmax [6, 9]?
A: 1120 ± 270 nM

Q: What about the Tmax [6, 9] of the same molecule?
A: 2.7 ± 1.2 h

Q: What about the bioavailability [6, 9] of the same molecule?
A: 33%

Q: What about the half-life [6, 9] of the same molecule?
A: 1.3 ± 0.26 h

Q: And the AUC [6, 10]?
A: 5.9 ± 2.2 µM·h

Q: What about the Cmax [6, 10] of the same molecule?
A: 1590 ± 615 nM

Q: What about the Tmax [6, 10] of the same molecule?
A: 2 ± 1.7 h

Q: What about the bioavailability [6, 10] of the same molecule?
A: 44%

Q: And the half-life [6, 10]?
A: 2.8 ± 1.6 h

Q: What about the CC50 at 6 days [7] of the same molecule?
A: > 10 µM

Q: What about the accumulation [8] of the same molecule?
A: ≤ 1.5 fold
